Experimental data from article PMC10893275, “A System for Discovering Novel Uricosurics Targeting Urate Transporter 1 Based on In Vitro and In Vivo Modeling” (Pharmaceutics, 2024).
pIC50: −log10 of the molar value.

Experiments:
[1] = biological target: T1, urate transporter 1 (URAT1) (Homo sapiens, UniProt Q96S37); test: non-isotopic uric acid uptake inhibition in URAT1-overexpressing HEK293 cells (positive control drug); type: cell-based
T1 construct: gene SLC22A12
T1 sequence (Q96S37 1-553): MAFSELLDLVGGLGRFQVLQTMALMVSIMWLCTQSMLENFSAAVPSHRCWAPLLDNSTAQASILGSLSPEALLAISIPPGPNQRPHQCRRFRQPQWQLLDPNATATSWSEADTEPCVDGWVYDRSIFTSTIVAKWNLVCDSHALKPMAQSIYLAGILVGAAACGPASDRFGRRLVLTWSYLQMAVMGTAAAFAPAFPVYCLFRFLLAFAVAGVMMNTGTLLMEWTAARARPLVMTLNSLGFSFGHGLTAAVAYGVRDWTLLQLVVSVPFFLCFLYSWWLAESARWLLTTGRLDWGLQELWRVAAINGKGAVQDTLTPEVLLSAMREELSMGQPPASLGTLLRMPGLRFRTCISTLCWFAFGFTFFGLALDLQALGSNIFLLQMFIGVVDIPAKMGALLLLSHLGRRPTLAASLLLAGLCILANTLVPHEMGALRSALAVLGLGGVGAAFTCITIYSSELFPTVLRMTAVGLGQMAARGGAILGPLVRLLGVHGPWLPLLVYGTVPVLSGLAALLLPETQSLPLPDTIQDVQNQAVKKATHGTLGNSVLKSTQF

[2] = biological target: T2, xanthine oxidoreductase (XOR) (Bos taurus, UniProt P80457)
T2 construct: gene XDH

[3] = biological target: T1, urate transporter 1 (URAT1); test: non-isotopic uric acid uptake inhibition in URAT1-overexpressing HEK293 cells; type: cell-based

T2 sequence (P80457 2-1332): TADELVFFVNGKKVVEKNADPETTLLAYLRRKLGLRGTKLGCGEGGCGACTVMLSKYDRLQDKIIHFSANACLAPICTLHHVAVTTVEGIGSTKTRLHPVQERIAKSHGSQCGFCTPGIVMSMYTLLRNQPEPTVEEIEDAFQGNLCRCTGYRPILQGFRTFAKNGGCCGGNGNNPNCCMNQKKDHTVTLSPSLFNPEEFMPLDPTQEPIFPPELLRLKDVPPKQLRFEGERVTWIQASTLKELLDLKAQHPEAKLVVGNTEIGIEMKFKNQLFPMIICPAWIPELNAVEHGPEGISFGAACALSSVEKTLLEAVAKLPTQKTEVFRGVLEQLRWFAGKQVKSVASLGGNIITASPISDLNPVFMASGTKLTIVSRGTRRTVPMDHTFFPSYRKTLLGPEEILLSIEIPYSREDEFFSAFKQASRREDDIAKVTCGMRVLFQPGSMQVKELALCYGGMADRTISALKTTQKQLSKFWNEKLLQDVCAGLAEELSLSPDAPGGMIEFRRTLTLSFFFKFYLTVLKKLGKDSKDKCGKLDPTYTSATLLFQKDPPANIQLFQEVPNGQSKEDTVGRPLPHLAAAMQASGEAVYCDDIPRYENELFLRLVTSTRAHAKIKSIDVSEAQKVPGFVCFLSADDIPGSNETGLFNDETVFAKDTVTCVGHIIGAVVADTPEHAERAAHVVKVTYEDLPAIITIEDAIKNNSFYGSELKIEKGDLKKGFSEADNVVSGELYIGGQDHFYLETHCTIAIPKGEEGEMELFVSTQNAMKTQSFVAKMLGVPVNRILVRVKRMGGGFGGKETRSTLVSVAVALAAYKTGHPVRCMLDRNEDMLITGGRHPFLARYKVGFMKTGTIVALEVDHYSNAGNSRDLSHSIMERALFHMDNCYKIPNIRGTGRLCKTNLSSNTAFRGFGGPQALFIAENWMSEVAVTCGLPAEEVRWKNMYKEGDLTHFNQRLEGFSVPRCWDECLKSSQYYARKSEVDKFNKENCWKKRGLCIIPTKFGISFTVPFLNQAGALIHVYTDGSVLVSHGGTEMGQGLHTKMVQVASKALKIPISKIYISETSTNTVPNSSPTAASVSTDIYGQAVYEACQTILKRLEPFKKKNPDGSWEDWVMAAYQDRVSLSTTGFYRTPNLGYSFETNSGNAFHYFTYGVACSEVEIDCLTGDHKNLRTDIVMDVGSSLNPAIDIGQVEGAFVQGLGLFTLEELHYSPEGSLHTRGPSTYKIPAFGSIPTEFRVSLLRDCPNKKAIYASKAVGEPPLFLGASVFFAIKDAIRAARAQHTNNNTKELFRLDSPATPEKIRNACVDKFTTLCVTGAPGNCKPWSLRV

`O=C(O)C1(Sc2ccnc3ccc(Br)cc23)CCC1` [SHR4640] gave a pIC50 [1] of 6.89.
With `Cc1nc(-c2ccc(OCC(C)C)c(C#N)c2)sc1C(=O)O` [febuxostat] the “% inhibition at 0.1 μM” value [2] was 94.8.
Molecule `O=C(O)C1(Sc2ccccc2N2CCOc3ccccc32)CCC1` [CC18002] has a pIC50 [3] of 5.77.
